Assay results reported in publication PMC12858467, “In vitro toxicokinetics and metabolic profiling of methoxycathinones and methylthiocathinones using human liver systems and hyphenated mass spectrometry” (Archives of Toxicology, 2025).

How the values were obtained:
Assay type in all cases: in vitro ADME
Conditions in all cases: 30 min, 37 °C
[1] = target: T1, CYP2B6 (Homo sapiens, UniProt P20813); test: Monooxygenases activity screening, CYP2B6; parameters: key: +, detected; -, not detected
T1 construct: purchased Discovery Life Sciences (Huntsville, LA, USA); host or cells: baculovirus-infected insect cells (microsomes, Supersomes)
T1 sequence (P20813 1-491): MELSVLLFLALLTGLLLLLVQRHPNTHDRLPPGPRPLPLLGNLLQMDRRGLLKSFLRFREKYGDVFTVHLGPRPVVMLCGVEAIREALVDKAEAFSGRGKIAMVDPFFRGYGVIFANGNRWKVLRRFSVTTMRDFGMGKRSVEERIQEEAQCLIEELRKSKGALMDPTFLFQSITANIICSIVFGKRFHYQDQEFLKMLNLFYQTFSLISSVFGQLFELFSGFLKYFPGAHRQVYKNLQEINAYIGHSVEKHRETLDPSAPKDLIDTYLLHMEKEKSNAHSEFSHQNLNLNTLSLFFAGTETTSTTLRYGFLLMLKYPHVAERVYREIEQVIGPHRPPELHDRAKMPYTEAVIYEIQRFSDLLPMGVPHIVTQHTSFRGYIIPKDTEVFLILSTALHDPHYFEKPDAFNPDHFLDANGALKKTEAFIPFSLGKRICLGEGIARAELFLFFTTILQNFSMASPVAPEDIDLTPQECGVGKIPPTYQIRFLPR
Protocol: (§1) For incubations with CYP2A6 or CYP2C9, phosphate buffer was replaced with 90 mM Tris buffer, according to the manufacturer’s guideline. […] All incubations were done in duplicate and concentrations were fixed. Verapamil (25 µM) was incubated as a positive control.

[2] = target: T2, CYP2C8 (Homo sapiens, UniProt P10632); test: Monooxygenases activity screening, CYP2C8; parameters: key: +, detected; -, not detected
T2 construct: purchased Discovery Life Sciences (Huntsville, LA, USA); host or cells: baculovirus-infected insect cells (microsomes, Supersomes)
T2 sequence (P10632 1-490): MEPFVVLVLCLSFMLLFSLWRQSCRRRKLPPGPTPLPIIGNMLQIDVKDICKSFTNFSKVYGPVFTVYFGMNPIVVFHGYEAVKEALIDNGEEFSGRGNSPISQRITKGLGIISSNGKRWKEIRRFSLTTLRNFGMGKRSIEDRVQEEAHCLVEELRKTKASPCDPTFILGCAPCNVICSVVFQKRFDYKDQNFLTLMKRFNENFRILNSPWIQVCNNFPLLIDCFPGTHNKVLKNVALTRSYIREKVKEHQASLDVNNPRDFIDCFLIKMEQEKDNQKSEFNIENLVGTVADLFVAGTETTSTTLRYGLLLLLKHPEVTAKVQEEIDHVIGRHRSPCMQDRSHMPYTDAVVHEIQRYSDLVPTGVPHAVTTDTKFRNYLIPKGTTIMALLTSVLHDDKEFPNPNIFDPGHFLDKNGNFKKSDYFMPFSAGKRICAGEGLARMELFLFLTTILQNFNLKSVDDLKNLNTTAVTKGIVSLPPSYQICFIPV
Protocol: as §1

[3] = target: T3, CYP2C19 (Homo sapiens, UniProt P33261); test: Monooxygenases activity screening, CYP2C19; parameters: key: +, detected; -, not detected
T3 construct: purchased Discovery Life Sciences (Huntsville, LA, USA); host or cells: baculovirus-infected insect cells (microsomes, Supersomes)
Protocol: as §1

[4] = target: T4, CYP3A5 (Homo sapiens, UniProt P20815); test: Monooxygenases activity screening, CYP3A5; parameters: key: +, detected; -, not detected
T4 construct: purchased Discovery Life Sciences (Huntsville, LA, USA); host or cells: baculovirus-infected insect cells (microsomes, Supersomes)
Protocol: as §1

[5] = target: T5, CYP2D6 (Homo sapiens, UniProt P10635); test: Monooxygenases activity screening, CYP2D6; parameters: key to one-step metabolite detected in CYP2D6 incubation: +, detected; -, not detected
T5 construct: purchased Discovery Life Sciences (Huntsville, LA, USA); host or cells: baculovirus-infected insect cells (microsomes, Supersomes)
Protocol: as §1

[6] = target: T6, CYP2C9 (Homo sapiens, UniProt P11712); test: Monooxygenases activity screening, CYP2C9; parameters: key: +, detected; -, not detected
T6 construct: purchased Discovery Life Sciences (Huntsville, LA, USA); host or cells: baculovirus-infected insect cells (microsomes, Supersomes)
Protocol: as §1

[7] = target: T7, CYP2E1 (Homo sapiens, UniProt P05181); test: Monooxygenases activity screening, CYP2E1; parameters: key: +, detected; -, not detected
T7 construct: purchased Discovery Life Sciences (Huntsville, LA, USA); host or cells: baculovirus-infected insect cells (microsomes, Supersomes)
Protocol: as §1

[8] = target: T8, CYP3A4 (Homo sapiens, UniProt P08684); test: Monooxygenases activity screening, CYP3A4; parameters: key: +, detected; -, not detected
T8 construct: purchased Discovery Life Sciences (Huntsville, LA, USA); host or cells: baculovirus-infected insect cells (microsomes, Supersomes)
Protocol: as §1

[9] = target: T9, CYP1A2 (Homo sapiens, UniProt P05177); test: Monooxygenases activity screening, CYP1A2; parameters: key: +, detected; -, not detected
T9 construct: purchased Discovery Life Sciences (Huntsville, LA, USA); host or cells: baculovirus-infected insect cells (microsomes, Supersomes)
T9 sequence (P05177 1-516): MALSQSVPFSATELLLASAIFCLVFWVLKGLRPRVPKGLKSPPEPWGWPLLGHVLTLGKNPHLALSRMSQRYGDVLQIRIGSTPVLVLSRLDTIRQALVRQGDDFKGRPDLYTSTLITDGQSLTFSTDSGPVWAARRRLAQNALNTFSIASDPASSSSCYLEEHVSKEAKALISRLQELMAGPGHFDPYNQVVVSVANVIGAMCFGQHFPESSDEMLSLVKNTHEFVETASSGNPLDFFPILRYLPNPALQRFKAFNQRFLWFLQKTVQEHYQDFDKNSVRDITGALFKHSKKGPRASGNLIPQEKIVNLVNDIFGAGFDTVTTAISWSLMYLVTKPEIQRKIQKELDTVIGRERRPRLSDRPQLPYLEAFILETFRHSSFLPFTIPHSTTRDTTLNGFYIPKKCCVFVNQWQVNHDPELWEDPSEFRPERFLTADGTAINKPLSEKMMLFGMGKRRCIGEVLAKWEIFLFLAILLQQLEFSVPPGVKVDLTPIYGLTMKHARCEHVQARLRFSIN
Protocol: as §1

[10] = target: T10, CYP2A6 (Homo sapiens, UniProt P11509); test: Monooxygenases activity screening, CYP2A6; parameters: key: +, detected; -, not detected
T10 construct: purchased Discovery Life Sciences (Huntsville, LA, USA); host or cells: baculovirus-infected insect cells (microsomes, Supersomes)
T10 sequence (P11509 1-494): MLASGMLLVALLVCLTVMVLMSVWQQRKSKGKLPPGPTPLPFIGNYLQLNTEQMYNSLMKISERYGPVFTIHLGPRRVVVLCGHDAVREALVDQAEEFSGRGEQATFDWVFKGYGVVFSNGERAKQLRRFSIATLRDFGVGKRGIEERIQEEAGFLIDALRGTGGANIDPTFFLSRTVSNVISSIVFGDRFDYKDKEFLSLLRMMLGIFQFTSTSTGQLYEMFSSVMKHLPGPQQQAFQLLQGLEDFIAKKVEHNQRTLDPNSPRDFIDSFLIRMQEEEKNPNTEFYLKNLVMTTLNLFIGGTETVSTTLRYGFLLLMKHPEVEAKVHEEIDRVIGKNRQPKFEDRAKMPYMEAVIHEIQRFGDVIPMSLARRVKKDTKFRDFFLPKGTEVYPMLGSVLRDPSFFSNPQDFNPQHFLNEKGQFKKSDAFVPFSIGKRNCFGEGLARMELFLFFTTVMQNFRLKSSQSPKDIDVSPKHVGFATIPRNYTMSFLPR
Protocol: as §1

[11] = target: T11, flavin-containing monooxygenase 3 (FMO3) (Homo sapiens, UniProt P31513); test: Monooxygenases activity screening, FMO3; parameters: key: +, detected; -, not detected
T11 construct: purchased Discovery Life Sciences (Huntsville, LA, USA); host or cells: baculovirus-infected insect cells (microsomes, Supersomes)
T11 sequence (P31513 1-532): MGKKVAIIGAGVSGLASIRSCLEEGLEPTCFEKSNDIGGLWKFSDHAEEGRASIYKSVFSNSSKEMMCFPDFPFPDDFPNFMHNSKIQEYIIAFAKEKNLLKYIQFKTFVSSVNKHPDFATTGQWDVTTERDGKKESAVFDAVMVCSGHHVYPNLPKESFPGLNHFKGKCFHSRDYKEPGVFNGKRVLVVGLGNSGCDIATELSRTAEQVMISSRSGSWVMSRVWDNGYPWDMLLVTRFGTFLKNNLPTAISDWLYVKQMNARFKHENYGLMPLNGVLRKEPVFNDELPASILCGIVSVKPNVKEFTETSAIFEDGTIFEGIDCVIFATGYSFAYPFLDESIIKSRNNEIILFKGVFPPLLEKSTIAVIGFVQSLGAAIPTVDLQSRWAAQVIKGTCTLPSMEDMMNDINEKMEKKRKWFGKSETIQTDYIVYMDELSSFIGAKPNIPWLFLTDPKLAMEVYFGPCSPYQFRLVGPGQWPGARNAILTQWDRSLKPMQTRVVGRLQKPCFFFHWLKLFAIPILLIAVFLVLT
Protocol: as §1

[12] = substrate 4MeO-αP-BP 25 µM, Table S3.2
[13] = substrate 4MeO-αP-VP 25 µM, Table S3.3

T5 sequence (P10635 whole entry): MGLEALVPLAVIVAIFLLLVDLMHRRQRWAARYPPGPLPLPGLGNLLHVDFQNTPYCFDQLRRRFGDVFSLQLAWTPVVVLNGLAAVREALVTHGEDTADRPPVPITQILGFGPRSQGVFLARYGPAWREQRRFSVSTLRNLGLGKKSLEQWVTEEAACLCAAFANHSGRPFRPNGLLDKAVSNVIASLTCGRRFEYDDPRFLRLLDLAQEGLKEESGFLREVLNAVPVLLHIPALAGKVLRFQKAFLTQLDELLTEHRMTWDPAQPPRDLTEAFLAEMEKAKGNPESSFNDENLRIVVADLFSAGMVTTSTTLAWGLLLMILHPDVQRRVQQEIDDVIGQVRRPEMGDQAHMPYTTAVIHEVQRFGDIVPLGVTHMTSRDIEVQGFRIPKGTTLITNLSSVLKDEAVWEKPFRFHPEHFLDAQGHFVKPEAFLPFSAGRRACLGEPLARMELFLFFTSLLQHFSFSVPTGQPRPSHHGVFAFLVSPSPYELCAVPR
T8 sequence (P08684 whole entry): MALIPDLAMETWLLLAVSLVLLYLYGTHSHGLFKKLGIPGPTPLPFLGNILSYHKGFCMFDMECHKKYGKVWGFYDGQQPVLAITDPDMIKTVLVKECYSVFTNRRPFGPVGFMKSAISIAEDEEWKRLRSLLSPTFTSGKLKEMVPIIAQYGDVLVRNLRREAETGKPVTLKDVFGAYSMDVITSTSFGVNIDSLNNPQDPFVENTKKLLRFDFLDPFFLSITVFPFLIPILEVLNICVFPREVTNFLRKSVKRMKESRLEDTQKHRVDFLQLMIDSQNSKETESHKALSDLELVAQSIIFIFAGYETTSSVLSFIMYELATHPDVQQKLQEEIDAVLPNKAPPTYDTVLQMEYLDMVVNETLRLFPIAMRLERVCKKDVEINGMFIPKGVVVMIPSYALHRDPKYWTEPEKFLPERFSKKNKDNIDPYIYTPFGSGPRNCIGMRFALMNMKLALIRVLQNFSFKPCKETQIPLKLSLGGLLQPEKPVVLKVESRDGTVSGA
T6 sequence (P11712 whole entry): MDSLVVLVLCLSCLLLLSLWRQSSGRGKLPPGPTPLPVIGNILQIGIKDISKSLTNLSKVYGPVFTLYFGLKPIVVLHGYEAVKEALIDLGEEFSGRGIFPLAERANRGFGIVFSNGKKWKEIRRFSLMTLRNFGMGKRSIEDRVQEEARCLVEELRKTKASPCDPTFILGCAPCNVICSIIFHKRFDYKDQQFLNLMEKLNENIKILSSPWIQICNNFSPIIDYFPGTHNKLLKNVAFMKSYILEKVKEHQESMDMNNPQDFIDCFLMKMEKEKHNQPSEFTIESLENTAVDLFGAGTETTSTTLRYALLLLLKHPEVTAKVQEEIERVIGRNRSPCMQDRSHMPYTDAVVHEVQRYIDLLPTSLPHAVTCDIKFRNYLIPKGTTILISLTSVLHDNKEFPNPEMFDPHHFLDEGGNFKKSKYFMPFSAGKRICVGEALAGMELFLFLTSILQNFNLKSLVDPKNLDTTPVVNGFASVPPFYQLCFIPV
T4 sequence (P20815 whole entry): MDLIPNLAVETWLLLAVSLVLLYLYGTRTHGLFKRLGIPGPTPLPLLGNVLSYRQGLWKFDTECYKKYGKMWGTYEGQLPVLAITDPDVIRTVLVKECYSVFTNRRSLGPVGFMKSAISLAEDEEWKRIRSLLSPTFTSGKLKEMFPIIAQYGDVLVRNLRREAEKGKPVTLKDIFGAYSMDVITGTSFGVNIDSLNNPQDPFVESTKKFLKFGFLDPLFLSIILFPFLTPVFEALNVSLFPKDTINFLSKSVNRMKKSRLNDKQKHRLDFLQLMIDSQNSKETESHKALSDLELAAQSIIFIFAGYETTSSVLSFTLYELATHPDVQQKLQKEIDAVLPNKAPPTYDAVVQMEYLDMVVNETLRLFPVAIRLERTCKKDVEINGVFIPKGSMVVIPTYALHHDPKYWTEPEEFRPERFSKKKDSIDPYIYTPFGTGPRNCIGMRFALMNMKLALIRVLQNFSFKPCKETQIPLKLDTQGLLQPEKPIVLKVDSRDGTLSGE
T7 sequence (P05181 whole entry): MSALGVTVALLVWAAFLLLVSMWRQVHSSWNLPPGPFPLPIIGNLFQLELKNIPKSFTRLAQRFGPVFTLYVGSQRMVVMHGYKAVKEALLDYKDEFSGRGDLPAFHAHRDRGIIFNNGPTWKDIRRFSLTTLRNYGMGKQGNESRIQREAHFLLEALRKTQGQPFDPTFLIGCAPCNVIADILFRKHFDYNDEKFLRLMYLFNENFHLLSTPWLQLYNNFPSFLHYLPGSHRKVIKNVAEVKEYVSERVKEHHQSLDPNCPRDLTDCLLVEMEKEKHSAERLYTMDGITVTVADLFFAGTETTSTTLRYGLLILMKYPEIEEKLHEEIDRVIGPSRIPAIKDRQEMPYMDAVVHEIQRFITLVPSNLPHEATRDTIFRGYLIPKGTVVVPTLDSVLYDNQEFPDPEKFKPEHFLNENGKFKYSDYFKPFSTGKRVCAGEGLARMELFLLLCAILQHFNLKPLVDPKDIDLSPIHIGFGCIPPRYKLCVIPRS
T3 sequence (P33261 whole entry): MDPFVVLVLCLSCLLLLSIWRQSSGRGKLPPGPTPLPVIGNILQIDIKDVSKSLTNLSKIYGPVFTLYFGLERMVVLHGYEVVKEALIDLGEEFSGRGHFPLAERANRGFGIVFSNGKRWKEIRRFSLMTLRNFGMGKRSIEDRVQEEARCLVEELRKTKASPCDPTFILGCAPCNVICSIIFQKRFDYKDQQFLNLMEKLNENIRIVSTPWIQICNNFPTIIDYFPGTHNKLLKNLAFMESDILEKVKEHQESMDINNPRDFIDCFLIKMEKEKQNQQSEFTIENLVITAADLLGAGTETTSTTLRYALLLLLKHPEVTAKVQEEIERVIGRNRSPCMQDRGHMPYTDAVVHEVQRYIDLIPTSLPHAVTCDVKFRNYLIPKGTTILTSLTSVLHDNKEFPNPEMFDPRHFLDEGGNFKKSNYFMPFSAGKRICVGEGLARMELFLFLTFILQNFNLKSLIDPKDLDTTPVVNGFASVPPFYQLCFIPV

SMILES	one-step metabolite detected in CYP2B6 incubation [1, 13]	one-step metabolite detected in CYP2C8 incubation [2, 13]	one-step metabolite detected in CYP2C19 incubation [3, 13]	one-step metabolite detected in CYP3A5 incubation [4, 13]	one-step metabolite detected in CYP2D6 incubation [5, 13]	one-step metabolite detected in CYP2C9 incubation [6, 13]	one-step metabolite detected in CYP2E1 incubation [7, 13]	one-step metabolite detected in CYP3A4 incubation [8, 13]	one-step metabolite detected in CYP1A2 incubation [9, 13]	one-step metabolite detected in CYP2A6 incubation [10, 13]	one-step metabolite detected in FMO3 incubation [11, 13]	further results
CCC(C(=O)c1ccc(O)cc1)N1CCCC1 (stereo not drawn) [MO2.2]												one-step metabolite detected in CYP2B6 incubation [1, 12]: -; one-step metabolite detected in CYP2C8 incubation [2, 12]: -; one-step metabolite detected in CYP2C19 incubation [3, 12]: +; one-step metabolite detected in CYP3A5 incubation [4, 12]: -; one-step metabolite detected in CYP2D6 incubation [5, 12]: +; one-step metabolite detected in CYP2C9 incubation [6, 12]: -; one-step metabolite detected in CYP2E1 incubation [7, 12]: -; one-step metabolite detected in CYP3A4 incubation [8, 12]: -; one-step metabolite detected in CYP1A2 incubation [9, 12]: +; one-step metabolite detected in CYP2A6 incubation [10, 12]: -; one-step metabolite detected in FMO3 incubation [11, 12]: -
CCCC(C(=O)c1ccc(O)cc1)N1CCCC1 (stereo not drawn) [MO3.2]	-	+	+	-	+	-	-	+	+	-	-	
CCCC(C(=O)c1ccc(OC)cc1)[N+]1([O-])CCCC1 (stereo not drawn) [MO3.4]	-	-	-	-	+	-	-	+	+	+	+	
